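The compound was tested at five concentrations on cells cultured in 96-well plates, with a 48-hour exposure period. Abbreviation: GI50, concentration required for 50% inhibition of growth. TGI is the concentration that stops growth completely.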
What was measured:
Test in all cases: NCI-60 cell line screen, 48 h
LXFL 529 NSCLC = tested on: LXFL 529 NSCLC
HOP-62 NSCLC = tested on: HOP-62 NSCLC
UACC-257 melanoma = tested on: UACC-257 melanoma
SK-MEL-28 melanoma = tested on: SK-MEL-28 melanoma
UACC-62 melanoma = tested on: UACC-62 melanoma
DMS 114 small cell lung = tested on: DMS 114 small cell lung
HOP-92 NSCLC = tested on: HOP-92 NSCLC
DMS 273 small cell lung = tested on: DMS 273 small cell lung
SNB-78 CNS = tested on: SNB-78 CNS
HT29 colon = tested on: HT29 colon
RPMI-8226 leukemia = tested on: RPMI-8226 leukemia
A549 NSCLC = tested on: A549 NSCLC
HCT-15 colon = tested on: HCT-15 colon
HCC-2998 colon = tested on: HCC-2998 colon
DLD-1 colon = tested on: DLD-1 colon
TK-10 renal = tested on: TK-10 renal
SN12C renal = tested on: SN12C renal
SK-MEL-5 melanoma = tested on: SK-MEL-5 melanoma
MOLT-4 leukemia = tested on: MOLT-4 leukemia
COLO 205 colon = tested on: COLO 205 colon
EKVX NSCLC = tested on: EKVX NSCLC
UO-31 renal = tested on: UO-31 renal
OVCAR-8 ovarian = tested on: OVCAR-8 ovarian
SW-620 colon = tested on: SW-620 colon
MALME-3M melanoma = tested on: MALME-3M melanoma
A498 renal = tested on: A498 renal
NCI-H226 lung = tested on: NCI-H226 lung
SF-295 CNS = tested on: SF-295 CNS
M14 melanoma = tested on: M14 melanoma
HL-60(TB) leukemia = tested on: HL-60(TB) leukemia
NCI-H522 lung = tested on: NCI-H522 lung
NCI-H460 lung = tested on: NCI-H460 lung
OVCAR-4 ovarian = tested on: OVCAR-4 ovarian
KM12 colon = tested on: KM12 colon
K-562 leukemia = tested on: K-562 leukemia
KM20L2 colon = tested on: KM20L2 colon
OVCAR-3 ovarian = tested on: OVCAR-3 ovarian
OVCAR-5 ovarian = tested on: OVCAR-5 ovarian
M19-MEL melanoma = tested on: M19-MEL melanoma
NCI-H23 lung = tested on: NCI-H23 lung
SNB-19 CNS = tested on: SNB-19 CNS
SK-OV-3 ovarian = tested on: SK-OV-3 ovarian
IGROV1 ovarian = tested on: IGROV1 ovarian
786-0 renal = tested on: 786-0 renal
HOP-18 NSCLC = tested on: HOP-18 NSCLC
SF-539 CNS = tested on: SF-539 CNS
ACHN renal = tested on: ACHN renal
U251 CNS = tested on: U251 CNS
CAKI-1 renal = tested on: CAKI-1 renal
HCT-116 colon = tested on: HCT-116 colon
SNB-75 CNS = tested on: SNB-75 CNS
SF-268 CNS = tested on: SF-268 CNS
CCRF-CEM leukemia = tested on: CCRF-CEM leukemia
SR leukemia = tested on: SR leukemia
SK-MEL-2 melanoma = tested on: SK-MEL-2 melanoma
LOX IMVI melanoma = tested on: LOX IMVI melanoma
RXF 393 renal = tested on: RXF 393 renal
XF 498 CNS = tested on: XF 498 CNS

**Q.** `Cc1cccc(C)c1NC(=O)CCc1n[nH]c(=S)o1` was tested. Which TGI (LXFL 529 NSCLC) did it give?
**A.** > 100 µM

**Q.** And the TGI (HOP-62 NSCLC)?
**A.** > 100 µM

**Q.** What about the TGI (UACC-257 melanoma) of the same molecule?
**A.** > 100 µM

**Q.** What about the TGI (SK-MEL-28 melanoma) of the same molecule?
**A.** > 100 µM

**Q.** What about the TGI (UACC-62 melanoma) of the same molecule?
**A.** > 100 µM

**Q.** What about the TGI (DMS 114 small cell lung) of the same molecule?
**A.** > 100 µM

**Q.** And the TGI (HOP-92 NSCLC)?
**A.** > 100 µM

**Q.** What about the TGI (DMS 273 small cell lung) of the same molecule?
**A.** > 100 µM

**Q.** And the TGI (SNB-78 CNS)?
**A.** > 100 µM

**Q.** And the TGI (HT29 colon)?
**A.** > 100 µM

**Q.** What about the TGI (RPMI-8226 leukemia) of the same molecule?
**A.** 56.7 µM

**Q.** What about the TGI (A549 NSCLC) of the same molecule?
**A.** > 100 µM

**Q.** And the TGI (HCT-15 colon)?
**A.** > 100 µM

**Q.** And the TGI (HCC-2998 colon)?
**A.** > 100 µM

**Q.** What about the TGI (DLD-1 colon) of the same molecule?
**A.** > 100 µM

**Q.** And the TGI (TK-10 renal)?
**A.** > 100 µM

**Q.** And the TGI (SN12C renal)?
**A.** > 100 µM

**Q.** What about the TGI (SK-MEL-5 melanoma) of the same molecule?
**A.** > 100 µM

**Q.** What about the TGI (MOLT-4 leukemia) of the same molecule?
**A.** > 100 µM

**Q.** And the TGI (COLO 205 colon)?
**A.** 85.1 µM

**Q.** And the TGI (EKVX NSCLC)?
**A.** > 100 µM

**Q.** And the TGI (UO-31 renal)?
**A.** > 100 µM

**Q.** And the TGI (OVCAR-8 ovarian)?
**A.** > 100 µM

**Q.** What about the TGI (SW-620 colon) of the same molecule?
**A.** 36.2 µM

**Q.** And the TGI (MALME-3M melanoma)?
**A.** > 100 µM

**Q.** What about the TGI (A498 renal) of the same molecule?
**A.** > 100 µM

**Q.** What about the TGI (NCI-H226 lung) of the same molecule?
**A.** > 100 µM

**Q.** And the TGI (SF-295 CNS)?
**A.** > 100 µM

**Q.** And the TGI (M14 melanoma)?
**A.** > 100 µM

**Q.** What about the TGI (HL-60(TB) leukemia) of the same molecule?
**A.** > 100 µM

**Q.** And the TGI (NCI-H522 lung)?
**A.** > 100 µM

**Q.** And the TGI (NCI-H460 lung)?
**A.** > 100 µM

**Q.** And the TGI (OVCAR-4 ovarian)?
**A.** > 100 µM

**Q.** What about the TGI (KM12 colon) of the same molecule?
**A.** > 100 µM

**Q.** And the TGI (K-562 leukemia)?
**A.** > 100 µM

**Q.** What about the TGI (KM20L2 colon) of the same molecule?
**A.** > 100 µM

**Q.** What about the TGI (OVCAR-3 ovarian) of the same molecule?
**A.** > 100 µM

**Q.** And the TGI (OVCAR-5 ovarian)?
**A.** > 100 µM

**Q.** And the TGI (M19-MEL melanoma)?
**A.** > 100 µM

**Q.** What about the TGI (NCI-H23 lung) of the same molecule?
**A.** > 100 µM

**Q.** And the TGI (SNB-19 CNS)?
**A.** > 100 µM

**Q.** What about the TGI (SK-OV-3 ovarian) of the same molecule?
**A.** > 100 µM

**Q.** And the TGI (IGROV1 ovarian)?
**A.** > 100 µM

**Q.** And the TGI (786-0 renal)?
**A.** > 100 µM

**Q.** And the TGI (HOP-18 NSCLC)?
**A.** > 100 µM

**Q.** And the TGI (SF-539 CNS)?
**A.** > 100 µM

**Q.** And the TGI (ACHN renal)?
**A.** > 100 µM

**Q.** And the TGI (U251 CNS)?
**A.** > 100 µM

**Q.** And the TGI (CAKI-1 renal)?
**A.** > 100 µM

**Q.** And the TGI (HCT-116 colon)?
**A.** 36.7 µM

**Q.** What about the TGI (SNB-75 CNS) of the same molecule?
**A.** > 100 µM

**Q.** What about the TGI (SF-268 CNS) of the same molecule?
**A.** > 100 µM

**Q.** What about the TGI (CCRF-CEM leukemia) of the same molecule?
**A.** > 100 µM

**Q.** For `COc1cc(/C=C(\OC(C)=O)c2ccc3c(c2)OCO3)cc(OC)c1OC`, which TGI (LXFL 529 NSCLC) is on record?
**A.** 34.9 µM

**Q.** And the TGI (HOP-62 NSCLC)?
**A.** 47.7 µM

**Q.** And the TGI (UACC-257 melanoma)?
**A.** 34 µM

**Q.** And the TGI (SK-MEL-28 melanoma)?
**A.** 41.9 µM

**Q.** And the TGI (UACC-62 melanoma)?
**A.** 34.2 µM

**Q.** And the TGI (DMS 114 small cell lung)?
**A.** 29 µM

**Q.** What about the TGI (SR leukemia) of the same molecule?
**A.** > 100 µM

**Q.** What about the TGI (HOP-92 NSCLC) of the same molecule?
**A.** 45.4 µM

**Q.** What about the TGI (DMS 273 small cell lung) of the same molecule?
**A.** 33.6 µM

**Q.** And the TGI (SNB-78 CNS)?
**A.** 91.9 µM

**Q.** What about the TGI (HT29 colon) of the same molecule?
**A.** 61.9 µM

**Q.** And the TGI (RPMI-8226 leukemia)?
**A.** 76.6 µM

**Q.** What about the TGI (A549 NSCLC) of the same molecule?
**A.** > 100 µM

**Q.** What about the TGI (HCT-15 colon) of the same molecule?
**A.** 36.9 µM

**Q.** And the GI50 (HCC-2998 colon)?
**A.** > 100 µM

**Q.** And the TGI (HCC-2998 colon)?
**A.** > 100 µM

**Q.** And the TGI (DLD-1 colon)?
**A.** 60.6 µM

**Q.** And the TGI (TK-10 renal)?
**A.** > 100 µM

**Q.** What about the TGI (SN12C renal) of the same molecule?
**A.** 88.1 µM

**Q.** What about the TGI (SK-MEL-2 melanoma) of the same molecule?
**A.** 57.9 µM

**Q.** And the TGI (SK-MEL-5 melanoma)?
**A.** 24.5 µM

**Q.** And the TGI (MOLT-4 leukemia)?
**A.** 43.4 µM

**Q.** And the TGI (COLO 205 colon)?
**A.** 51.5 µM

**Q.** What about the TGI (EKVX NSCLC) of the same molecule?
**A.** 54.9 µM

**Q.** And the TGI (UO-31 renal)?
**A.** 28.2 µM

**Q.** What about the TGI (OVCAR-8 ovarian) of the same molecule?
**A.** 33.9 µM

**Q.** And the TGI (SW-620 colon)?
**A.** > 100 µM

**Q.** What about the TGI (MALME-3M melanoma) of the same molecule?
**A.** 59.7 µM

**Q.** And the TGI (A498 renal)?
**A.** 71.4 µM

**Q.** And the TGI (NCI-H226 lung)?
**A.** 30.7 µM

**Q.** And the TGI (SF-295 CNS)?
**A.** 98.6 µM

**Q.** What about the TGI (M14 melanoma) of the same molecule?
**A.** 39.4 µM

**Q.** What about the TGI (HL-60(TB) leukemia) of the same molecule?
**A.** > 100 µM

**Q.** And the TGI (NCI-H522 lung)?
**A.** 50.2 µM

**Q.** And the TGI (NCI-H460 lung)?
**A.** > 100 µM

**Q.** And the TGI (OVCAR-4 ovarian)?
**A.** 51.8 µM

**Q.** And the TGI (KM12 colon)?
**A.** 48.7 µM

**Q.** What about the TGI (K-562 leukemia) of the same molecule?
**A.** > 100 µM

**Q.** And the TGI (KM20L2 colon)?
**A.** > 100 µM

**Q.** And the TGI (LOX IMVI melanoma)?
**A.** 31.3 µM

**Q.** What about the TGI (RXF 393 renal) of the same molecule?
**A.** > 100 µM

**Q.** And the TGI (OVCAR-3 ovarian)?
**A.** 49.2 µM

**Q.** And the TGI (OVCAR-5 ovarian)?
**A.** > 100 µM

**Q.** What about the TGI (M19-MEL melanoma) of the same molecule?
**A.** 30.9 µM

**Q.** What about the TGI (NCI-H23 lung) of the same molecule?
**A.** 35.4 µM

**Q.** What about the TGI (SNB-19 CNS) of the same molecule?
**A.** > 100 µM

**Q.** What about the TGI (SK-OV-3 ovarian) of the same molecule?
**A.** 66.8 µM

**Q.** And the TGI (IGROV1 ovarian)?
**A.** 33.1 µM

**Q.** And the TGI (786-0 renal)?
**A.** > 100 µM

**Q.** What about the TGI (XF 498 CNS) of the same molecule?
**A.** 27.7 µM

**Q.** And the TGI (HOP-18 NSCLC)?
**A.** > 100 µM

**Q.** What about the TGI (SF-539 CNS) of the same molecule?
**A.** 38.8 µM

**Q.** What about the TGI (ACHN renal) of the same molecule?
**A.** 69.3 µM

**Q.** What about the TGI (U251 CNS) of the same molecule?
**A.** 47.4 µM

**Q.** What about the TGI (CAKI-1 renal) of the same molecule?
**A.** > 100 µM

**Q.** What about the TGI (HCT-116 colon) of the same molecule?
**A.** 38.9 µM

**Q.** And the TGI (SNB-75 CNS)?
**A.** 46.7 µM

**Q.** What about the TGI (SF-268 CNS) of the same molecule?
**A.** 67.5 µM

**Q.** What about the TGI (CCRF-CEM leukemia) of the same molecule?
**A.** > 100 µM

Source: PubChem BioAssay (NCI)
